# Experimental data taken from paper PMC2810227, “3-O-Methylfunicone, a Selective Inhibitor of Mammalian Y-Family DNA Polymerases from an Australian Sea Salt Fungal Strain” (Marine Drugs, 2009).
# Legend:
# human topoisomerase II = molecular target: T1, human topoisomerase II (Homo sapiens, UniProt P11388); assay: DNA topoisomerase II assay; assay type: biochemical; settings: 100 μM
# T1 construct: Purified human placenta DNA topoisomerases I and II were purchased from TopoGen, Inc; purchased TopoGen, Inc. (Columbus, OH, USA); host or cells: human placenta (tissue-purified)
# From the text: (§1) Pol α was purified from calf thymus by immuno-affinity column chromatography, as described by Tamai et al.. Recombinant rat pol β was purified from E. coli JMpβ5, as described by Date et al.. The human pol γ catalytic gene was cloned into pFastBac. Histidine-tagged enzyme was expressed using the BAC-TO-BAC HT Baculovirus Expression System according to the supplier’s manual (Life Technologies, MD, USA) and purified using ProBoundresin (Invitrogen Japan, Tokyo, Japan). Human pols δ and ɛ were purified by nuclear fractionation of human peripheral blood cancer cells (Molt-4) using the second subunit of pols δ and ɛ-conjugated affinity column chromatography, respectively. A truncated form of human pol η (residues 1–511) tagged with His6 at its C-terminal was expressed in E. coli cells and purified as described by Kusumoto et al.. […]
# (§2) The activities of calf primase of pol α, human telomerase, T7 RNA polymerase, mouse IMP dehydrogenase, human DNA topoisomerases I and II, T4 polynucleotide kinase and bovine DNase I were measured in standard assays according to the manufacturer’s specifications, as described by Tamiya-Koizumi et al., Oda et al., Nakayama et al., Mizushina et al., Ishimaru et al., Soltis et al. and Lu et al., respectively.
# [1] = tested on: HDF (human dermal fibroblast); assay: Proliferation and growth of normal cells, HDF; assay type: cell-based; settings: data not shown
# T7 RNA polymerase = molecular target: T2, T7 RNA polymerase (Escherichia phage T7, UniProt P00573); assay: T7 RNA polymerase assay; assay type: biochemical; settings: 100 μM
# T2 construct: purchased Takara Bio (Tokyo, Japan)
# From the text: as §1, §2
# mouse pol ι = molecular target: T3, mouse pol ι (Mus musculus, UniProt Q6R3M4); assay: DNA polymerase assay, pol ι; assay type: biochemical
# T3 construct: His6 (C); made in house
# From the text: (§3) Pol α was purified from calf thymus by immuno-affinity column chromatography, as described by Tamai et al.. Recombinant rat pol β was purified from E. coli JMpβ5, as described by Date et al.. The human pol γ catalytic gene was cloned into pFastBac. Histidine-tagged enzyme was expressed using the BAC-TO-BAC HT Baculovirus Expression System according to the supplier’s manual (Life Technologies, MD, USA) and purified using ProBoundresin (Invitrogen Japan, Tokyo, Japan). Human pols δ and ɛ were purified by nuclear fractionation of human peripheral blood cancer cells (Molt-4) using the second subunit of pols δ and ɛ-conjugated affinity column chromatography, respectively. A truncated form of human pol η (residues 1–511) tagged with His6 at its C-terminal was expressed in E. coli cells and purified as described by Kusumoto et al.. A recombinant mouse pol ι tagged with His6 at its C-terminal was expressed and purified by Ni-NTA column chromatography as described elsewhere (Masutani et al., in preparation). […]
# (§4) The compounds were dissolved in distilled dimethyl sulfoxide (DMSO) at various concentrations and sonicated for 30 sec. […] Activity without the inhibitor was considered 100%, and the remaining activity at each concentration of the inhibitor was determined relative to this value. […]
# cauliflower pol α = assay: DNA polymerase assay, plant pol α; assay type: biochemical; settings: 100 μM
# From the text: as §3, §4
# rat pol β = molecular target: T4, rat pol β (Rattus norvegicus, UniProt P06766); assay: DNA polymerase assay, pol β; assay type: biochemical; settings: 100 μM
# T4 construct: made in house; host or cells: E. coli JMpβ5
# From the text: as §3, §4
# human topoisomerase I = molecular target: T5, human topoisomerase I (Homo sapiens, UniProt P11387); assay: DNA topoisomerase I assay; assay type: biochemical; settings: 100 μM
# T5 construct: Purified human placenta DNA topoisomerases I and II were purchased from TopoGen, Inc; purchased TopoGen, Inc. (Columbus, OH, USA); host or cells: human placenta (tissue-purified)
# From the text: as §1, §2
# T4 polynucleotide kinase = molecular target: T6, T4 polynucleotide kinase (Enterobacteria phage T4, UniProt P06855); assay: T4 polynucleotide kinase assay; assay type: biochemical; settings: 100 μM
# T6 construct: purchased Takara Bio (Tokyo, Japan)
# From the text: as §1, §2
# bovine DNase I = molecular target: T7, bovine DNase I (Bos taurus, UniProt P00639); assay: DNase I assay; assay type: biochemical; settings: 100 μM
# T7 construct: Calf thymus TdT and bovine pancreas DNase I were obtained from Stratagene Cloning Systems; purchased Stratagene Cloning Systems (La Jolla, CA, USA); host or cells: bovine pancreas (tissue)
# From the text: as §1, §2
# fruit fly pol δ = molecular target: T8, fruit fly pol δ (Drosophila melanogaster, UniProt P54358); assay: DNA polymerase assay, insect pol δ; assay type: biochemical; settings: 100 μM
# T8 construct: purified from early embryos of Drosophila melanogaster; from tissue; host or cells: early embryos of Drosophila melanogaster
# [2] = molecular target: T9, human immunodeficiency virus type-1 (HIV-1) reverse transcriptase (Human immunodeficiency virus type 1 group M subtype B, UniProt P03366); assay: HIV-1 reverse transcriptase assay; assay type: biochemical; settings: 100 μM
# T9 construct: HIV-1 reverse transcriptase (recombinant); purchased Worthington Biochemical Corp. (Freehold, NJ, USA)
# From the text: as §3, §4
# rice pol λ = molecular target: T10, rice pol λ (Oryza sativa subsp. japonica, UniProt Q67VC8); assay: DNA polymerase assay, plant pol λ; assay type: biochemical, rice (Oryza sativa L. cv. Nipponbare); settings: 100 μM
# T10 construct: His; made in house
# From the text: as §3, §4
# human pol λ = molecular target: T11, human pol λ (Homo sapiens, UniProt Q9UGP5); assay: DNA polymerase assay, pol λ; assay type: biochemical; settings: 100 μM
# T11 construct: His; made in house
# From the text: as §3, §4
# calf primase of pol α = assay: Primase assay; assay type: biochemical; settings: 100 μM
# Procedure: as §2
# T3 sequence (Q6R3M4 whole entry): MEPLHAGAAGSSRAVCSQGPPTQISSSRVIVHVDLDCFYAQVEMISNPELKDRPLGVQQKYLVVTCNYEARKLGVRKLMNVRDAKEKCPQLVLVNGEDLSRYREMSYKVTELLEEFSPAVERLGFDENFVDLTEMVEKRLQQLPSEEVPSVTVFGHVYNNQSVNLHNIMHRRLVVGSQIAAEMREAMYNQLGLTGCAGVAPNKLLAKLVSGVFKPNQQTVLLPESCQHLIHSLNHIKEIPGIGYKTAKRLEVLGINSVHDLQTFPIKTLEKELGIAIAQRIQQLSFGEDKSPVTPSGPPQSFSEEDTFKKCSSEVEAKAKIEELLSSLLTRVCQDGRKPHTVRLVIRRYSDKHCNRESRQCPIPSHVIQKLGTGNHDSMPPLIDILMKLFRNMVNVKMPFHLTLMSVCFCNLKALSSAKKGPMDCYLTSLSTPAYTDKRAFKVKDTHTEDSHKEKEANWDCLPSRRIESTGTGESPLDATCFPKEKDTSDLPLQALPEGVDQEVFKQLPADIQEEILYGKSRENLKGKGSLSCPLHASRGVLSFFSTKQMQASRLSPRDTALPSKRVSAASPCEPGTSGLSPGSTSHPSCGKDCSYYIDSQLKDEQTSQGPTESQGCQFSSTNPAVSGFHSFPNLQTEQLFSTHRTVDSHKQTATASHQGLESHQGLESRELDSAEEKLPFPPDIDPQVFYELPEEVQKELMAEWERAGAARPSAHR
# T1 sequence (P11388 whole entry): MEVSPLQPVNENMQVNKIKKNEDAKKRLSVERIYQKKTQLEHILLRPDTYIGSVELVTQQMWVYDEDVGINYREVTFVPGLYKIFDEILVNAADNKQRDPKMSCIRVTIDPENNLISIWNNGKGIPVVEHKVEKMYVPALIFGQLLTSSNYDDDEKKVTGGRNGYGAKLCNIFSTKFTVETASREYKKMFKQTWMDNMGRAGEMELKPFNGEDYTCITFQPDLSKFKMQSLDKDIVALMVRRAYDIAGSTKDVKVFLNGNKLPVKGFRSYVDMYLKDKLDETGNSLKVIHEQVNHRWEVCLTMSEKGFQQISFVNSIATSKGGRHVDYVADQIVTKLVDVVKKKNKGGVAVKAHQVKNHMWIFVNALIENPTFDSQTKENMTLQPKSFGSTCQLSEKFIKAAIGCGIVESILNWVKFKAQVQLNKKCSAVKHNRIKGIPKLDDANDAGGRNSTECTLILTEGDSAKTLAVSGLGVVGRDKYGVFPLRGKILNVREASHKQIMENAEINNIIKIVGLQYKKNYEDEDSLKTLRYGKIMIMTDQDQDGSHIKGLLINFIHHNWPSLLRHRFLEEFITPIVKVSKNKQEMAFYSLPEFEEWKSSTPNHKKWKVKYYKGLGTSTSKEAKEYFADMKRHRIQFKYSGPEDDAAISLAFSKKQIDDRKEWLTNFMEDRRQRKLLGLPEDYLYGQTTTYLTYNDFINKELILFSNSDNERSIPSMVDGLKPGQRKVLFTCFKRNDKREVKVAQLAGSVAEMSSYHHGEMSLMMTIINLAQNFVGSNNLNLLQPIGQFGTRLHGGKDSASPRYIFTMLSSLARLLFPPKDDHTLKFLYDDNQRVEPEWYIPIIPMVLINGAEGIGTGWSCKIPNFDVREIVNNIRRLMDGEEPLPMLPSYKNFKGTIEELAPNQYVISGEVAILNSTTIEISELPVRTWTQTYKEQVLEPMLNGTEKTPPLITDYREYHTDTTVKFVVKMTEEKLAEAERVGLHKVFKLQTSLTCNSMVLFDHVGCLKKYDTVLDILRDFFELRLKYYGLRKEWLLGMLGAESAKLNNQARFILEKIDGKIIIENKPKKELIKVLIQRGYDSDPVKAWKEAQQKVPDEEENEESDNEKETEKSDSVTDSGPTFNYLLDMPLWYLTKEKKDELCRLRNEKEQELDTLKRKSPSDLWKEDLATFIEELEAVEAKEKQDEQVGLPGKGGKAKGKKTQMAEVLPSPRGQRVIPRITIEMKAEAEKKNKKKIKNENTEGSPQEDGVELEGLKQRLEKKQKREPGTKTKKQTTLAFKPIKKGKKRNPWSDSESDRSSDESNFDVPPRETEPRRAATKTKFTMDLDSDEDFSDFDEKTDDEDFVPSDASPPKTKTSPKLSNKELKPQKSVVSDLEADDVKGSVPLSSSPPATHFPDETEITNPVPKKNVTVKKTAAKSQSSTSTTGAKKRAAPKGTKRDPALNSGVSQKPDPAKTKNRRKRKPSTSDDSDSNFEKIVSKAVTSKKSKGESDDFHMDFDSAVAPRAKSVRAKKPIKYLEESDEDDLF
# T6 sequence (P06855 whole entry): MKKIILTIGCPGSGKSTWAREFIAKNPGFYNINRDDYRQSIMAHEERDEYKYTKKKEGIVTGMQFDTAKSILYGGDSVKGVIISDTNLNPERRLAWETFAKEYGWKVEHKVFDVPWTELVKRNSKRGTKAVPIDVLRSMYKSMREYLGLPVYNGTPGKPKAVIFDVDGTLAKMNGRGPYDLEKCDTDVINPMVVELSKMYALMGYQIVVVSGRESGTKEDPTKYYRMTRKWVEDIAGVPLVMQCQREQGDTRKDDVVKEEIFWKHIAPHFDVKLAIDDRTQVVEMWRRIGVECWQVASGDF
# T2 sequence (P00573 whole entry): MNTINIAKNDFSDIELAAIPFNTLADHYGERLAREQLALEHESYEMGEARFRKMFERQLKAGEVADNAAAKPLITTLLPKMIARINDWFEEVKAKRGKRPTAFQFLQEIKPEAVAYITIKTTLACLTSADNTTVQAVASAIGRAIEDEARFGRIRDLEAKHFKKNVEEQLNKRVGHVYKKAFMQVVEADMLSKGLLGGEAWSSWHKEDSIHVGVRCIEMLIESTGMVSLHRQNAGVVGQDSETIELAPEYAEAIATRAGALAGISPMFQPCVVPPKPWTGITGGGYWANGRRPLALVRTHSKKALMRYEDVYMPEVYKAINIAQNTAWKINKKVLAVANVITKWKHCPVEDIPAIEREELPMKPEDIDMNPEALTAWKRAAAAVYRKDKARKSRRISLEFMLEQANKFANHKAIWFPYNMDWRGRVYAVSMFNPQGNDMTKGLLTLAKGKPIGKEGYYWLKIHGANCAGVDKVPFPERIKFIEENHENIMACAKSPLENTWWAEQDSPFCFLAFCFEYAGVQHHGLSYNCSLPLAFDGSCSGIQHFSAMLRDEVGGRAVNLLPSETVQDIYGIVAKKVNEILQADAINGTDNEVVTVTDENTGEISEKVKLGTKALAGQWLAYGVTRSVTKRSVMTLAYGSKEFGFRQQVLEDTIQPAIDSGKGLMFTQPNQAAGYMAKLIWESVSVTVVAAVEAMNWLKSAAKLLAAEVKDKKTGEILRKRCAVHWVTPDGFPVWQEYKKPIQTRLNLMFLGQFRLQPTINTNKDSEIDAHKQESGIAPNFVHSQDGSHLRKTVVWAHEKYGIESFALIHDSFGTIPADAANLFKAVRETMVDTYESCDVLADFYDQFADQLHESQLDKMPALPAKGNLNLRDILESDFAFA
# T5 sequence (P11387 whole entry): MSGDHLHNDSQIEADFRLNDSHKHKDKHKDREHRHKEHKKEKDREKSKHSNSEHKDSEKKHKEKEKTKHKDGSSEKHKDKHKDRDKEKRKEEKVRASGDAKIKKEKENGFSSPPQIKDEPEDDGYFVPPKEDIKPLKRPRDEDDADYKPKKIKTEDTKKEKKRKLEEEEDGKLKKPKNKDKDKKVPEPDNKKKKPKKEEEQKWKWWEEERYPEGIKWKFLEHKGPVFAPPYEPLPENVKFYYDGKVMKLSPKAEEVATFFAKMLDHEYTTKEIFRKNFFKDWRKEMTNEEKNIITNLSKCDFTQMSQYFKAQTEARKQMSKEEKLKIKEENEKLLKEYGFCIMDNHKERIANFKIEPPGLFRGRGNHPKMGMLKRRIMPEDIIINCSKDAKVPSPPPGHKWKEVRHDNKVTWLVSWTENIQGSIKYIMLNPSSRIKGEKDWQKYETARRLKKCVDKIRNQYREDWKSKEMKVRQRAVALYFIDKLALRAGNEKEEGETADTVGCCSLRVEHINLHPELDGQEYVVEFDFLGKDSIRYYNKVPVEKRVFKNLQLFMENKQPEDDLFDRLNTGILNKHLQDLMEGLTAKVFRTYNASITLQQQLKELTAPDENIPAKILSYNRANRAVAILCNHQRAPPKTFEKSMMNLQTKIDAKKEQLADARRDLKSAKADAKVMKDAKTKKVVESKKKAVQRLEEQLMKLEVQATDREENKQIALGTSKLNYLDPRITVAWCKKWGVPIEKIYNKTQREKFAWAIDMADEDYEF
# T11 sequence (Q9UGP5 whole entry): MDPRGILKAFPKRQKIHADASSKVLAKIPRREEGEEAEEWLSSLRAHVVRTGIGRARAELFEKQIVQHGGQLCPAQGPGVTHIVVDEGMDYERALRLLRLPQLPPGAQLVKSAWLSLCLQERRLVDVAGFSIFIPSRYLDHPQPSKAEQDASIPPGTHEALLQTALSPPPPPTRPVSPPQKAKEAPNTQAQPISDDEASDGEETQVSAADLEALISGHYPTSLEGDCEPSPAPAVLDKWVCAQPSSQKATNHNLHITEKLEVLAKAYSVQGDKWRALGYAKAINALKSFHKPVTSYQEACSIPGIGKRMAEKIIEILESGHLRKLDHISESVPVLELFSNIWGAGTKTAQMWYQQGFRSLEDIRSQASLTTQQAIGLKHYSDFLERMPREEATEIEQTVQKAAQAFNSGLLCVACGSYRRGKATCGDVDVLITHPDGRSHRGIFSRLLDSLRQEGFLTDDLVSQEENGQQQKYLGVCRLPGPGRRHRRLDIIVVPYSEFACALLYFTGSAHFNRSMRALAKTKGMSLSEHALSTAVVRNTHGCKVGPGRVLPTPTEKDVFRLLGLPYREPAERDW
smiles,measurement,setting,value
"C/C=C/c1occ(C(=O)c2c(OC)cc(OC)cc2C(=O)OC)c(=O)c1OC [compound 1, 3-O-methylfunicone]",effect on human topoisomerase II activity,human topoisomerase II,did not influence
same,effect on cell proliferation and growth,[1],did not influence
same,effect on T7 RNA polymerase activity,T7 RNA polymerase,did not influence
same,effect on pol ι activity,mouse pol ι; 100 μM,selectively inhibit
same,IC50,"mouse pol ι; poly(dA)/oligo(dT)18 and dTTP, 0.05 units enzyme, read-out: 50% inhibition of pol ι (IC50)",34.3 µM
same,effect on cauliflower pol α activity,cauliflower pol α,no effect
same,effect on pol β activity,rat pol β,hardly influenced
same,effect on human topoisomerase I activity,human topoisomerase I,did not influence
same,effect on T4 polynucleotide kinase activity,T4 polynucleotide kinase,did not influence
same,effect on bovine DNase I activity,bovine DNase I,did not influence
same,effect on fruit fly pol δ activity,fruit fly pol δ,hardly influenced
same,effect on HIV-1 reverse transcriptase activity,[2],did not influence
same,effect on rice pol λ activity,rice pol λ,no effect
same,effect on pol λ activity,human pol λ,hardly influenced
same,effect on calf primase of pol α activity,calf primase of pol α,did not influence
